Series [1] has as its target Hydroxycarboxylic acid receptor 2 (Homo sapiens) (UniProt Q8TDS4). The series can be described thus: Displacement of [3H]niacin from human niacin receptor expressed in […] cells at 25 uM in presence of 5% human serum. Format: cell-based. (In general: Displacement assays read how much labelled ligand stays bound in the presence of the test substance.)
Series [2] has the same target. The series can be described thus: Displacement of [3H]niacin from human niacin receptor expressed in […] cells at 25 uM in absence of 5% human serum. It is filed as cell-based.
The nature of series [3]: Half life in mouse at 1 mg/kg, iv or 2 mg/kg, po. Format: ADME, organism-based. To be noted: in vivo.
A short description of series [4]: Plasma clearance in mouse at 1 mg/kg, iv or 2 mg/kg, po. Format: ADME, organism-based.
Series [5] in a line: Oral bioavailability in mouse at 2 mg/kg. Format: ADME, organism-based. The note with it: in vivo.
The nature of series [6]: Cmax in mouse at 1 mg/kg, iv or 2 mg/kg, po. It is filed as ADME, organism-based. The note with it: in vivo.
The nature of series [7]: Volume of distribution at steady state in mouse at 1 mg/kg, iv or 2 mg/kg, po. It is filed as ADME, organism-based. To be noted: in vivo, read-out: Vdss.
Series [8] deals with Rattus norvegicus. As to the kind of experiment: Decrease in blood free fatty acid level in rat at 100 mg/kg, po after 20 mins. It is filed as functional, organism-based. Further details: dose 100 mg/kg.
Another series relates to Blood. As to the kind of experiment: Drug level in rat blood at 30 mg/kg, sc. It is filed as ADME, organism-based. Also on record: dose 30 mg/kg, route subcutaneous. The note with it: in vivo, read-out: Drug uptake.
Series [9] has as its system Rattus norvegicus. The series can be described thus: Decrease in blood free fatty acid level in po dosed rat.
For series [10], the system named is Rattus norvegicus. As to the kind of experiment: Toxicity in rat assessed as changes in rat ear blood perfusion upto 30 mg/kg, sc. It is filed as organism-based. Also on record: dose 30 mg/kg, route subcutaneous. To be noted: in vivo.
Series [11] deals with Rattus norvegicus. As to the kind of experiment: Decrease in blood free fatty acid level in rat at 3 mg/kg, po. Format: functional. Also on record: scale not given: the % may be the effect or the level left.

Experimental findings from ChEMBL document CHEMBL1154028, “Pyrazole acids as niacin receptor agonists for the treatment of dyslipidemia” (Bioorg Med Chem Lett, 2009) are described below.

Active and inactive are the calls of the source. The calls are words filed in the database; no cut-off is given here.

Sequence of Hydroxycarboxylic acid receptor 2 (Homo sapiens) (Q8TDS4 whole entry): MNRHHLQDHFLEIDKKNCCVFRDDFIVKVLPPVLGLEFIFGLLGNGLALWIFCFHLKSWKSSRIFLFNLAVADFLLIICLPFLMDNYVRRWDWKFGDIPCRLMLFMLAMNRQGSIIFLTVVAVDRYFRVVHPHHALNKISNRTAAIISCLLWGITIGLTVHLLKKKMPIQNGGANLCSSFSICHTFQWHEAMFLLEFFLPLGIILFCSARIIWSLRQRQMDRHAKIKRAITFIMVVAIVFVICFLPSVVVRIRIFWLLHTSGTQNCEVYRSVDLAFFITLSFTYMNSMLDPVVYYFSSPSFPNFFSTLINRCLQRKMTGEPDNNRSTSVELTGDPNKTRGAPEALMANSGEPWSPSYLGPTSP

As for `O=C(O)c1n[nH]c2c1CC(c1ccccc1)CC2` (racemic), the Activity in series [1] was 35%; in series [2] it was 19%.
`O=C(O)c1n[nH]c2c1CCC(c1ccccc1)C2` (racemic) displayed an Activity in series [2] of 63%.
Regarding `O=C(O)c1n[nH]c2c1CC(c1cccnc1F)CC2` (racemic), the Activity in [1] amounted to 88%; in series [2], 90%. In addition, the half-life (commonly the time in which the quantity being followed falls by half) in series [3] was 2.6 h. The clearance in [4] was 21 mL/min/kg. The bioavailability (usually the share of a dose that reaches the circulation, judged against a reference dose that is usually intravenous) in series [5] was 47%. For the same compound, the peak level in series [6] (Cmax) was 2.3 µM. In series [7], the Vd worked out at 2.4 L/kg.
For `O=C(O)c1n[nH]c2c1CC(c1cc(F)ccc1F)CC2` (centres undefined), the Activity in series [1] is 84%; in series [2], 56%. The outcome with Rattus norvegicus [8] was Active.
As to `O=C(O)c1n[nH]c2c1CC(c1ccnc(F)c1)CC2` (racemic), the Activity in [1] was 69%; in [2] it was 60%.
With `Fc1ccc(F)c(C2CCc3[nH]nc(-c4nnn[nH]4)c3C2)c1` (racemic), in series [1], the Activity is 17%.
`Fc1ncccc1C1CCC2=C(C1)C(=C1N=NN=N1)N=N2` (centres undefined): the Activity amounted to 75% in series [1] and 40% in series [2].
In the case of `O=C(O)c1n[nH]c2c1CC(c1ccccc1Cl)CC2` (racemic), the Activity in series [1] worked out at 20%.
Consider `O=C(O)c1n[nH]c2c1CC(c1ccccc1F)CC2` (racemic), for which, in series [1], the Activity came out at 18%.
In turn, `O=C(O)c1n[nH]c2c1CC(c1cc(F)ccc1F)CC2` (racemic) showed a half-life in series [3] of 2.9 h. This compound came in with a clearance in [4] of 8.3 mL/min/kg. In series [5], this compound showed a bioavailability of 53%. Besides, the Cmax (in general, the maximum level reached in the sampled fluid or tissue) in series [6] amounted to 3.3 µM. For the same compound, the Vd in series [7] stood at 1.4 L/kg.
With `Br.O=C(O)c1n[nH]c2c1CC(c1cc(F)ccc1F)CC2` (centres undefined), the concentration in the series with Blood is 135 µM. Also, the EC50 – broadly, the concentration at which the effect is half-maximal – in the series on Rattus norvegicus [9] was found to be 3000 nM. Also, the Activity entry in the series on Rattus norvegicus [10] is reported as “Non-toxic”; with Rattus norvegicus [11], 50%.
